Reference: ChEMBL document CHEMBL1158174, “The antioxidant activity of 2-(4(or 2)-hydroxyl-5-chloride-1,3-benzene-di-sulfanimide)-chitosan” (Eur J Med Chem, 2008)

Assays:
[1] = Antioxidant activity assessed as superoxide radical scavenging activity at 0.40 mg/mL; assay type: functional
[2] = Antioxidant activity assessed as hydroxyl radical scavenging activity; assay type: functional

O=C1O[C@H]([C@@H](O)CO)C(O)=C1O [ASCORBIC ACID]
Activity [1]: 33.9%
IC50 [2]: > 711 µg/mL
